The values below come from patent publication US12440476B2, “Agents that target telomerase reverse transcriptase (TERT) for treating cancer and sensitizing cancer cells to genotoxic therapy” (Northwestern University, priority 2022, dated 2025).

One data set concerns CD8+ T cells. The data set is described as follows: In vitro T cell priming assay (CFSE dilution). It is filed as cell-based, mouse. Particulars: DCs stimulated by inhibitor treated and irradiated (10 Gy) CT26 cells; 5 days; NU-1 1 μM, MST 2 μM. The protocol:
To evaluate effects of TERT on tumor immunogenicity, CT26 cells were seeded at […] per well in 12-well plates, allowed to attach overnight, and then treated with DMSO, NU-1 (1 μM), or MST-312 (2 μM) for 1 h, followed by 0 or 10 Gy. 5 days after IR, the media were removed, cells washed with PBS, and fresh immune cell culture medium added. CT26 cells were then cultured overnight, followed by coculturing with immature BMDCs for 12-16 h at a 1:2 ratio. After coculture, the suspension BMDCs were collected into round bottom FACS tubes, washed with PBS, and stained with Zombie yellow (1:1000, BioLegend) for 10 min at room temperature. […] After PBS washing, cells were resuspended in 300 μL Cell Staining Buffer and analyzed using a BD Fortessa 4-15 HTS Flow cytometer within 2 hours. Data were then analyzed by FlowJo software. […]
Splenocytes isolated from CT26 immunized mice were stained with 0.5 μM carboxyfluorescein succinimidyl ester (CFSE) (Thermo Fisher Scientific, Cat #C34554) for 10 min at room temperature (Quah et al., 2007). […] Cells were analyzed using a BD Fortessa 4-15 HTS flow cytometer and FlowJo software. […]

A short description of another data set: Tolerability in mice. The following applies: BALB/c mice. It is filed as in vivo.
For a further data set, the system named is MCF7 cells. The data set is described as follows: Senescence-associated beta-galactosidase (SA-β-Gal) assay. It is filed as cell-based, human. Particulars: 50 nM, 7 days after IR. The protocol: MCF7, Saos-2, or CT26 cells were seeded at 3×10^4 per well in 6-well plates and allowed to attach to plate overnight. […] Then MCF7 and Saos-2 cells were irradiated with 0 or 6 Gy and CT26 cells with 0 or 10 Gy. After IR, MCF7 and Saos-2 cells were continuously cultured for 7 days and CT26 for 5 days, then fixed in 2% PFA and stained with staining buffer (1 mg/ml X-Gal (Golden Bio), 40 mM citric acid/sodium phosphate, 150 mM NaCl, 2 mM MgCl2, 3.3 mM K3[Fe(CN)6], 3.3 mM K4[Fe(CN)6], pH=6) for 16 h at 37° C., then washed with warm PBS three times and imaged in PBS within a week. Images were captured on a Zeiss Axiovert 200M microscope with a 20× Plan-NeoFluar objective and Axiocam digital camera. SA-β-Gal-positive and -negative cells were counted in more than 5 fields, yielding an average percentage indicated on each SA-β-Gal image as mean±SD. Three replicates were performed.

In another data set the test system is CT26 cells. The description is as above. Particulars: non-toxic doses, 10 Gy, 5 days. It is filed as cell-based, mouse. How it is done: MCF7, Saos-2, or CT26 cells were seeded at 3×10^4 per well in 6-well plates and allowed to attach to plate overnight. For TERT inhibition, MCF7 cells were treated with DMSO vehicle, NU-2 (0.5 μM), NU-1 (0.5 μM), chrolactomycin (0.5 μM), BIBR 1532 (10 μM), or MST-312 (1 μM) for 1 h prior to IR, Saos-2 cells were treated with DMSO vehicle, NU-2 (1 μM), NU-1 (1 μM), chrolactomycin (1 μM), BIBR 1532 (20 μM), or MST-312 (1 μM) for 1 h prior to IR, and CT26 cells were treated with MSO vehicle, NU-2 (1 μM), NU-1 (1 μM), chrolactomycin (1 μM), BIBR 1532 (20 μM), or MST-312 (2 μM) for 1 h prior to IR. Then MCF7 and Saos-2 cells were irradiated with 0 or 6 Gy and CT26 cells with 0 or 10 Gy. After IR, MCF7 and Saos-2 cells were continuously cultured for 7 days and CT26 for 5 days, then fixed in 2% PFA and stained with staining buffer (1 mg/ml X-Gal (Golden Bio), 40 mM citric acid/sodium phosphate, 150 mM NaCl, 2 mM MgCl2, 3.3 mM K3[Fe(CN)6], 3.3 mM K4[Fe(CN)6], pH=6) for 16 h at 37° C., then washed with warm PBS three times and imaged in PBS within a week. Images were captured on a Zeiss Axiovert 200M microscope with a 20× Plan-NeoFluar objective and Axiocam digital camera. SA-β-Gal-positive and -negative cells were counted in more than 5 fields, yielding an average percentage indicated on each SA-β-Gal image as mean±SD. Three replicates were performed.
To examine the roles for STING, CT26 cells were seeded at 2×10^4 per well in 12-well plates and allowed to attach overnight. STING inhibitor C178 (0 or 4 μM) was added, followed by the addition of DMSO vehicle, NU-1 (1 μM), MST-312 (2 μM) or chrolactomycin (1 μM) for 1 h prior to 0 or 10 Gy. CT26 cells were cultured for 5 days, surviving cells were washed twice in PBS and cultured in fresh immune cell culture medium overnight. The CT26 cells were then cocultured with BMDCs for 12-16 h at a 1:2 ratio, and BMDCs were collected and analyzed after coculturing, as described above.

Regarding `C=C1C(=O)[C@](C)(C(=O)OC)[C@H](CCc2cn(Cc3ccc(F)cc3F)nn2)O[C@@H]1C` [NU-1], the “Proliferating CD8+ T cells” value in the data set with CD8+ T cells is listed as 33.5%. The Tolerability in mice entry in “Tolerability in mice” is recorded as “well-tolerated”. For the same compound, the “Enhancement of senescence after IR at low concentration” value in the data set with MCF7 cells is reported as “sufficient to enhance senescence after IR”. In addition, in the data set on CT26 cells, the “Senescence induction by IR” value is given as “enhanced senescence induction by IR”.
